Common to all, as to test: biochemical
What all share (set-up): endogenous in cells; host or cells: K562 cell extract; species or system K562 (extract); replicate k of n = 2 (each experiment ID is one independent experiment; two experiment IDs per compound)
Details in all cases: read-out: KDapp

The target in one assay is T1, MAP3K6 (Homo sapiens, UniProt O95382).
T1 sequence (O95382 1-1288): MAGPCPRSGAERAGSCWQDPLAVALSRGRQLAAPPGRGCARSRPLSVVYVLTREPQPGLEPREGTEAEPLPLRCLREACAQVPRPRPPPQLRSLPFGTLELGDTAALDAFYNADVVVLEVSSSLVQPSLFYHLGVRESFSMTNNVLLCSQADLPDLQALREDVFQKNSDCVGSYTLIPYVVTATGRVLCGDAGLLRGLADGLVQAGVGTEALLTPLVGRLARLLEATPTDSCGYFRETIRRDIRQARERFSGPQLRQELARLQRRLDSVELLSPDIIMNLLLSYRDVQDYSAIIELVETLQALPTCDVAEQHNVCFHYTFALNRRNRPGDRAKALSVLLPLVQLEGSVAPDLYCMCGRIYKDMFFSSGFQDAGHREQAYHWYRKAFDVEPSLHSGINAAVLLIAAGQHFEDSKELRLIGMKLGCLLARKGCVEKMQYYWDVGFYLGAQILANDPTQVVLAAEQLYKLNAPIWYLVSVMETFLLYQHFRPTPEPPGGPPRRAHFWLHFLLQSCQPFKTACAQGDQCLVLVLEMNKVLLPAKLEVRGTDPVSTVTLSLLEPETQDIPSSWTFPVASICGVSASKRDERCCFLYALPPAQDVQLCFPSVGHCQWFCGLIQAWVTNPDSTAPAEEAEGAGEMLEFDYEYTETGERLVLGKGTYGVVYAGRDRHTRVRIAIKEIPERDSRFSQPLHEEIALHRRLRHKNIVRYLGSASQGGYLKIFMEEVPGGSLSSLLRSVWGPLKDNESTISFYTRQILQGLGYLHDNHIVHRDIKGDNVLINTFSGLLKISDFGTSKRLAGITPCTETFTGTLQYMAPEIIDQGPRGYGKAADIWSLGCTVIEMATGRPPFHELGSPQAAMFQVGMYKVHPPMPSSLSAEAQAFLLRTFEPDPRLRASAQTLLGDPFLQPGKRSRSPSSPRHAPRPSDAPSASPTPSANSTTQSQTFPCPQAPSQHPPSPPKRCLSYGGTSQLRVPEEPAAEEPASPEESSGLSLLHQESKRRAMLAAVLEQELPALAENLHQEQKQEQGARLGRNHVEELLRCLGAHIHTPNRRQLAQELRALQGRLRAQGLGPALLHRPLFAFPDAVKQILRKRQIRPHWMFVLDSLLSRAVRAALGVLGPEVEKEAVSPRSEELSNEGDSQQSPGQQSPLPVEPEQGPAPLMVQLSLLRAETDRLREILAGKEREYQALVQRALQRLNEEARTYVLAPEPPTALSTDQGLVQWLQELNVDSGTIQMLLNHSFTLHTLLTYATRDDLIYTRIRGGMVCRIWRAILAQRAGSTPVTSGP

Another assay has as its target MAPK8 (Homo sapiens, UniProt P45983).
A further assay deals with T2, PRKX (Homo sapiens, UniProt P51817).
T2 sequence (P51817 1-358): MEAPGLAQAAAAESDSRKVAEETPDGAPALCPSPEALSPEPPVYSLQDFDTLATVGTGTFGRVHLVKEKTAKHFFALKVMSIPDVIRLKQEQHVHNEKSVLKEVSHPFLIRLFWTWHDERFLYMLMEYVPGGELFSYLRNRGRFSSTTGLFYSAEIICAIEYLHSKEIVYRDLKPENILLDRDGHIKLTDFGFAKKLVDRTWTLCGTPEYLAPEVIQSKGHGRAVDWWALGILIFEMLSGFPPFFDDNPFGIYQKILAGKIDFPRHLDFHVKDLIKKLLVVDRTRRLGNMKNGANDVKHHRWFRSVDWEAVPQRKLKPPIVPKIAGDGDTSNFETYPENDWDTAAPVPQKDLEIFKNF

A further assay concerns the target T3, AXL (Homo sapiens, UniProt P30530).
T3 sequence (P30530 1-894): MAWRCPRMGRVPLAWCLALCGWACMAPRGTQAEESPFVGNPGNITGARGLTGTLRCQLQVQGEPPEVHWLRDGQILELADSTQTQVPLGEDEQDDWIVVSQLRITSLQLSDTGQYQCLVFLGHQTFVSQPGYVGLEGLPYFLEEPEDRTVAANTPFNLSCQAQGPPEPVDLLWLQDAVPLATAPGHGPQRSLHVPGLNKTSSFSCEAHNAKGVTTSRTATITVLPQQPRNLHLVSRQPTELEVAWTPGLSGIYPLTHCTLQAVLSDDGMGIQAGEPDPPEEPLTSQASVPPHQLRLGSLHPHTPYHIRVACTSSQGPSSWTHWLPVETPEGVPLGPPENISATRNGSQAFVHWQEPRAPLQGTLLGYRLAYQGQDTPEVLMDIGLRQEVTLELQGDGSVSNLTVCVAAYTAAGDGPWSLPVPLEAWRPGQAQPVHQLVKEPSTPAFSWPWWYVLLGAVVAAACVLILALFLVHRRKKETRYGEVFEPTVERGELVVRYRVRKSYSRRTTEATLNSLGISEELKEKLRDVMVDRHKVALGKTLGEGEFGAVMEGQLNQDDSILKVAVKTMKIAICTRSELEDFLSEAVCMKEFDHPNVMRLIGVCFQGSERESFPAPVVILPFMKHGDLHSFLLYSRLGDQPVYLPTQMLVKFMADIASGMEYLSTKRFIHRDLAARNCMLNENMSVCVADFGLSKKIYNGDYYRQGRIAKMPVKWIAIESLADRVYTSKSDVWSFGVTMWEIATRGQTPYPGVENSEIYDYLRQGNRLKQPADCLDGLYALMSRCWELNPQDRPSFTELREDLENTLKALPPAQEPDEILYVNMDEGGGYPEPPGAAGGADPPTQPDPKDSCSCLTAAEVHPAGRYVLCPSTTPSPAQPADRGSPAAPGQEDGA

The structures appear in SMILES notation. Where “and” joins values, the source holds several entries; their conditions need not be identical. Identical values can stand only once.

Sequence of MAPK8 (P45983 whole entry): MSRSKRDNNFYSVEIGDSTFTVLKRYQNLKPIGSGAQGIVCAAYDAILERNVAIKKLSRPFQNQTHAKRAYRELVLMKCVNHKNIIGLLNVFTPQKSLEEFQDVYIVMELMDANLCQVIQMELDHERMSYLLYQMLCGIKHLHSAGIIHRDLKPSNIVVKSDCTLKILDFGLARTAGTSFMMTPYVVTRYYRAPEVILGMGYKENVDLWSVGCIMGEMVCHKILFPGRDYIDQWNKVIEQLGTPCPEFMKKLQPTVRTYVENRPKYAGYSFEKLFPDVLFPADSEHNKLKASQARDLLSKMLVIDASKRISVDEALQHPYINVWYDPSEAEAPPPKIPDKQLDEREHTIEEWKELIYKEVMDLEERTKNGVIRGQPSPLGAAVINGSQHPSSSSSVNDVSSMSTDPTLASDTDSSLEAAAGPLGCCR

Consider `CN1CCN(c2ccc(Nc3ncc(C#N)c(Nc4ccccc4C(N)=O)n3)cc2)CC1.Cl` [TCMDC-134116], for which the Kd on MAP3K6 is 994 nM and 870 nM; on MAPK8, 363 nM and 1230 nM; at PRKX it was 1030 nM; on AXL, 266 nM and 293 nM.

Values taken from paper PMC4774911, “Biochemical Screening of Five Protein Kinases from Plasmodium falciparum against 14,000 Cell-Active Compounds” (PLoS ONE, 2016).
